Reference: the supplement of paper PMC10307832

Experiments:
Assay in all cases: relative viability (nuclei count vs DMSO), 5 days (fraction); higher = more cells survive
[1] = system: SW 1573
Method in brief: (§1)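 The day after seeding in 1536-well plates, lung cancer cell lines were treated by pin tool with a single drug, or with a fixed anchor-drug dose together with five library-drug doses (not always all listed) in √10 steps. After 5 days, a combined fix-and-stain solution (final 0.05% Triton X-100, 1% formaldehyde, 1 ug/ml Hoechst) was added. Nuclei counted on 4× images gave relative viability as treated counts over vehicle counts, reported as the median of duplicate plates.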

[2] = system: LOU-NH91
Method in brief: as §1

[3] = system: HCC-44
Method in brief: as §1

[4] = system: NCI-H1793
Method in brief: as §1

[5] = system: HOP-62
Method in brief: as §1

[6] = system: EMC-BAC-2
Method in brief: as §1

[7] = system: NCI-H727
Method in brief: as §1

[8] = system: NCI-H2405
Method in brief: as §1

[9] = system: NCI-H2170
Method in brief: as §1

[10] = system: NCI-H650
Method in brief: as §1

[11] = system: EPLC-272H
Method in brief: as §1

[12] = system: NCI-H1437
Method in brief: as §1

[13] = system: NCI-H2009
Method in brief: as §1

[14] = system: NCI-H441
Method in brief: as §1

[15] = system: NCI-H520
Method in brief: as §1

[16] = system: NCI-H460
Method in brief: as §1

[17] = system: NCI-H2126
Method in brief: as §1

[18] = system: ChaGo-K-1
Method in brief: as §1

[19] = system: NCI-H2023
Method in brief: as §1

[20] = system: NCI-H2347
Method in brief: as §1

[21] = system: NCI-H647
Method in brief: as §1

## COCC1(CO)C(=O)C2CCN1CC2 (centres undefined) [PRIMA-1MET] + CS(=O)(=O)N1CCN(Cc2cc3nc(-c4cccc5[nH]ncc45)nc(N4CCOCC4)c3s2)CC1 [Pictilisib] (partner 1 µM)
[1]; first compound 0.2 µM
  relative viability: 0.463
[1]; first compound 0.6325 µM
  relative viability: 0.409
[1]; first compound 2 µM
  relative viability: 0.45
[1]; first compound 6.325 µM
  relative viability: 0.0446
[1]; first compound 20 µM
  relative viability: 0.0283
[2]; first compound 0.2 µM
  relative viability: 0.573
[2]; first compound 0.6325 µM
  relative viability: 0.474
[2]; first compound 2 µM
  relative viability: 0.458
[2]; first compound 6.325 µM
  relative viability: 0.467
[2]; first compound 20 µM
  relative viability: 0.366
[3]; first compound 0.2 µM
  relative viability: 0.569
[3]; first compound 0.6325 µM
  relative viability: 0.414
[3]; first compound 2 µM
  relative viability: 0.426
[3]; first compound 6.325 µM
  relative viability: 0.651
[3]; first compound 20 µM
  relative viability: 0.611
[4]; first compound 0.2 µM
  relative viability: 0.372
[4]; first compound 0.6325 µM
  relative viability: 0.251
[4]; first compound 6.325 µM
  relative viability: 0.343
[4]; first compound 20 µM
  relative viability: 0.325
[5]; first compound 0.2 µM
  relative viability: 0.442
[5]; first compound 0.6325 µM
  relative viability: 0.465
[5]; first compound 2 µM
  relative viability: 0.368
[5]; first compound 6.325 µM
  relative viability: 0.734
[5]; first compound 20 µM
  relative viability: 0.392
[6]; first compound 0.2 µM
  relative viability: 0.608
[6]; first compound 0.6325 µM
  relative viability: 0.503
[6]; first compound 2 µM
  relative viability: 0.343
[6]; first compound 6.325 µM
  relative viability: 0.566
[6]; first compound 20 µM
  relative viability: 0.583
[7]; first compound 0.2 µM
  relative viability: 0.258
[7]; first compound 0.6325 µM
  relative viability: 0.341
[7]; first compound 2 µM
  relative viability: 0.241
[7]; first compound 6.325 µM
  relative viability: 0.178
[7]; first compound 20 µM
  relative viability: 0.109
[8]; first compound 0.2 µM
  relative viability: 0.278
[8]; first compound 0.6325 µM
  relative viability: 0.497
[8]; first compound 6.325 µM
  relative viability: 0.359
[8]; first compound 20 µM
  relative viability: 0.0865
[9]; first compound 0.2 µM
  relative viability: 0.312
[9]; first compound 0.6325 µM
  relative viability: 0.276
[9]; first compound 2 µM
  relative viability: 0.283
[9]; first compound 6.325 µM
  relative viability: 0.336
[9]; first compound 20 µM
  relative viability: 0.297
[10]; first compound 0.2 µM
  relative viability: 1.14
[10]; first compound 2 µM
  relative viability: 0.867
[10]; first compound 6.325 µM
  relative viability: 1.06
[10]; first compound 20 µM
  relative viability: 0.111
[11]; first compound 0.2 µM
  relative viability: 0.295
[11]; first compound 0.6325 µM
  relative viability: 0.251
[11]; first compound 2 µM
  relative viability: 0.234
[11]; first compound 6.325 µM
  relative viability: 0.305
[11]; first compound 20 µM
  relative viability: 0.124
[12]; first compound 0.2 µM
  relative viability: 0.463
[12]; first compound 0.6325 µM
  relative viability: 0.481
[12]; first compound 2 µM
  relative viability: 0.356
[12]; first compound 6.325 µM
  relative viability: 0.466
[12]; first compound 20 µM
  relative viability: 0.412
[13]; first compound 0.2 µM
  relative viability: 0.337
[13]; first compound 0.6325 µM
  relative viability: 0.68
[13]; first compound 2 µM
  relative viability: 0.506
[13]; first compound 6.325 µM
  relative viability: 0.513
[13]; first compound 20 µM
  relative viability: 0.0085
[14]; first compound 0.2 µM
  relative viability: 0.504
[14]; first compound 0.6325 µM
  relative viability: 0.325
[14]; first compound 2 µM
  relative viability: 0.473
[14]; first compound 6.325 µM
  relative viability: 0.411
[14]; first compound 20 µM
  relative viability: 0.264
[15]; first compound 0.2 µM
  relative viability: 0.345
[15]; first compound 0.6325 µM
  relative viability: 0.285
[15]; first compound 6.325 µM
  relative viability: 0.368
[15]; first compound 20 µM
  relative viability: 0.13
[16]; first compound 0.2 µM
  relative viability: 0.31
[16]; first compound 0.6325 µM
  relative viability: 0.359
[16]; first compound 2 µM
  relative viability: 0.23
[16]; first compound 6.325 µM
  relative viability: 0.357
[16]; first compound 20 µM
  relative viability: 0.197
[17]; first compound 0.2 µM
  relative viability: 0.459
[17]; first compound 0.6325 µM
  relative viability: 0.485
[17]; first compound 2 µM
  relative viability: 0.418
[17]; first compound 6.325 µM
  relative viability: 0.548
[17]; first compound 20 µM
  relative viability: 0.488
[18]; first compound 0.2 µM
  relative viability: 0.732
[18]; first compound 0.6325 µM
  relative viability: 0.468
[18]; first compound 2 µM
  relative viability: 0.84
[18]; first compound 6.325 µM
  relative viability: 0.752
[18]; first compound 20 µM
  relative viability: 0.328
[19]; first compound 0.2 µM
  relative viability: 0.205
[19]; first compound 0.6325 µM
  relative viability: 0.196
[19]; first compound 2 µM
  relative viability: 0.222
[19]; first compound 6.325 µM
  relative viability: 0.229
[19]; first compound 20 µM
  relative viability: 0.221
[20]; first compound 0.2 µM
  relative viability: 0.416
[20]; first compound 0.6325 µM
  relative viability: 0.741
[20]; first compound 6.325 µM
  relative viability: 0.675
[20]; first compound 20 µM
  relative viability: 0.561
[21]; first compound 0.2 µM
  relative viability: 0.523
[21]; first compound 0.6325 µM
  relative viability: 0.384
[21]; first compound 6.325 µM
  relative viability: 0.412
[21]; first compound 20 µM
  relative viability: 0.165
